The values below come from ChEMBL document CHEMBL3813627, “Preventive effect of a novel diosgenin derivative on arterial and venous thrombosis in vivo” (Bioorg Med Chem Lett, 2016).

Active and inactive are the calls of the source. The calls are words filed in the database; no cut-off is given here.

The subject of data set [1] is Rattus norvegicus. The data set is described as follows: Antiplatelet activity in platelet-rich plasma isolated from Sprague-Dawley rat assessed as ADP-induced platelet aggregation at 20 mg/kg, ig bid for 7 days measured for 5 mins by light transmission aggregometry (reference value: 57.57 +/- 2.43 %). It counts as functional.
Data set [2] deals with Mus musculus. The data set is described as follows: Toxicity in Balb/c mouse assessed as white blood cell count at 28.8 mg/kg, ig bid for 7 days (reference value: 7.7 +/- 0.65 10^9/L). It is filed as organism-based. To be noted: in vivo, po, 168 h.
For data set [3], the system named is Rattus norvegicus. The data set is described as follows: Anti-thrombotic activity in Sprague-Dawley rat model of FeCl3-induced venous thrombosis assessed as reduction in venous thrombus weight at 46 mg/kg, ig bid for 7 days. It counts as functional, organism-based.
For data set [4], the system named is Mus musculus. The experiment in a line: Toxicity in Balb/c mouse assessed as red blood cell count at 28.8 mg/kg, ig bid for 7 days (reference value: 7.55 +/- 0.59 10^12/L). It counts as organism-based. To be noted: in vivo, po, 168 h.
The species named for data set [5] is Rattus norvegicus. The experiment in a line: Gastric toxicity in Sprague-Dawley rat assessed as fibrotic changes treated for 49 days by hematoxylin and eosin staining based microscopic analysis. To be noted: in vivo, 1176 h. It is filed as organism-based.
The subject of data set [6] is Rattus norvegicus. The experiment in a line: In vivo activation of coagulation factor10 in Sprague-Dawley rat at 20 mg/kg, ig bid for 7 days by automated coagulometry. It is filed as functional, organism-based.
The subject of data set [7] is Rattus norvegicus. The data set is described as follows: In vivo activation of coagulation factor11 in Sprague-Dawley rat at 20 mg/kg, ig bid for 7 days by automated coagulometry. It is filed as functional, organism-based.
The subject of data set [8] is Rattus norvegicus. The experiment in a line: Anticoagulant activity in platelet-rich plasma isolated from Sprague-Dawley rat assessed as prothrombin time at 20 mg/kg, ig bid for 7 days (reference value: 11.6 +/- 0.98 secs). It is filed as functional.
For data set [9], the system named is Rattus norvegicus. The experiment in a line: In vivo activation of coagulation factor8 in Sprague-Dawley rat at 20 mg/kg, ig bid for 7 days by automated coagulometry. It counts as functional, organism-based.
Data set [10] relates to Mus musculus. The experiment in a line: Toxicity in Balb/c mouse assessed as platelet count at 28.8 mg/kg, ig bid for 7 days (reference value: 802 +/- 74 10^9/L). It is filed as organism-based. To be noted: in vivo, po, 168 h.
In data set [11] the test system is Mus musculus. The experiment in a line: Toxicity in Balb/c mouse assessed as tail bleeding time at 28.8 mg/kg, ig bid for 7 days (reference value: 186 +/- 12 sec). It counts as organism-based. To be noted: in vivo, po.
In data set [12] the test system is Rattus norvegicus. The data set is described as follows: In vivo activation of coagulation factor9 in Sprague-Dawley rat at 20 mg/kg, ig bid for 7 days by automated coagulometry. It is filed as functional, organism-based.
Data set [13] concerns Rattus norvegicus. The experiment in a line: In vivo activation of coagulation factor12 in Sprague-Dawley rat at 20 mg/kg, ig bid for 7 days by automated coagulometry. It counts as functional, organism-based.
Data set [14] has as its system Mus musculus. The data set is described as follows: Toxicity in Balb/c mouse assessed as hemoglobin count at 28.8 mg/kg, ig bid for 7 days (reference value: 143 +/- 11.9 g/L). To be noted: in vivo, po, 168 h. It is filed as organism-based.
The test system of data set [15] is Rattus norvegicus. The data set is described as follows: Anti-thrombotic activity in Sprague-Dawley rat model of FeCl3-induced arterial thrombosis assessed as reduction in arterial thrombus weight at 20 mg/kg, ig bid for 7 days. It counts as functional, organism-based.
The subject of data set [16] is Rattus norvegicus. The experiment in a line: Anti-thrombotic activity in Sprague-Dawley rat model of FeCl3-induced venous thrombosis assessed as reduction in venous thrombus length at 46 mg/kg, ig bid for 7 days by vernier caliper method. It counts as functional, organism-based.
Data set [17] relates to Mus musculus. The data set is described as follows: Toxicity in Balb/c mouse assessed as hematocrit at 28.8 mg/kg, ig bid for 7 days (reference value: 40.5 +/- 3.5 %). It is filed as organism-based. To be noted: in vivo, po, 168 h.
The species entered for data set [18] is Rattus norvegicus. The experiment in a line: Gastric toxicity in Sprague-Dawley rat assessed as gastric mucosal damage score treated for 49 days by hematoxylin and eosin staining based microscopic analysis. It is filed as organism-based, Gastric mucosa. To be noted: in vivo, 1176 h.
For data set [19], the system named is Rattus norvegicus. The data set is described as follows: Anti-thrombotic activity in Sprague-Dawley rat model of FeCl3-induced arterial thrombosis assessed as reduction in arterial thrombus length at 20 mg/kg, ig bid for 7 days by vernier caliper method. It counts as functional, organism-based.
Data set [20] is filed under the species Rattus norvegicus. The data set is described as follows: Gastric toxicity in Sprague-Dawley rat assessed as angiogenesis treated for 49 days by hematoxylin and eosin staining based microscopic analysis. It counts as organism-based. To be noted: in vivo, 1176 h.
For data set [21], the system named is Rattus norvegicus. The data set is described as follows: Anticoagulant activity in platelet-rich plasma isolated from Sprague-Dawley rat assessed as thrombin time at 20 mg/kg, ig bid for 7 days (reference value: 47.1 +/- 3.1 secs). It counts as functional.
The test system of data set [22] is Rattus norvegicus. The data set is described as follows: Anticoagulant activity in platelet-rich plasma isolated from Sprague-Dawley rat assessed as activated partial thromboplastin time at 20 mg/kg, ig bid for 7 days (reference value: 17.6 +/- 0.92 secs). It is filed as functional.
Data set [23] deals with Rattus norvegicus. The data set is described as follows: Anticoagulant activity in platelet-rich plasma isolated from Sprague-Dawley rat assessed as thrombin time at 46 mg/kg, ig bid for 7 days (reference value: 47.1 +/- 3.1 secs). It counts as functional.
Data set [24] relates to Mus musculus. The experiment in a line: Toxicity in Balb/c mouse assessed as hemoglobin count at 66.2 mg/kg, ig bid for 7 days (reference value: 143 +/- 11.9 g/L). Particulars: in vivo, po, 168 h. It counts as organism-based.
The test system of data set [25] is Mus musculus. The data set is described as follows: Toxicity in Balb/c mouse assessed as hematocrit at 66.2 mg/kg, ig bid for 7 days (reference value: 40.5 +/- 3.5 %). Particulars: in vivo, po, 168 h. It is filed as organism-based.
The subject of data set [26] is Rattus norvegicus. The data set is described as follows: Antiplatelet activity in platelet-rich plasma isolated from Sprague-Dawley rat assessed as ADP-induced platelet aggregation at 46 mg/kg, ig bid for 7 days measured for 5 mins by light transmission aggregometry (reference value: 57.57 +/- 2.43 %). It is filed as functional.
Data set [27] has as its system Rattus norvegicus. The experiment in a line: Anticoagulant activity in platelet-rich plasma isolated from Sprague-Dawley rat assessed as activated partial thromboplastin time at 46 mg/kg, ig bid for 7 days (reference value: 17.6 +/- 0.92 secs). It is filed as functional.
For data set [28], the system named is Mus musculus. The experiment in a line: Toxicity in Balb/c mouse assessed as platelet count at 66.2 mg/kg, ig bid for 7 days (reference value: 802 +/- 74 10^9/L). It is filed as organism-based. To be noted: in vivo, po, 168 h.
Data set [29] deals with Rattus norvegicus. The data set is described as follows: Anticoagulant activity in platelet-rich plasma isolated from Sprague-Dawley rat assessed as prothrombin time at 46 mg/kg, ig bid for 7 days (reference value: 11.6 +/- 0.98 secs). It is filed as functional.
Data set [30] has as its system Mus musculus. The data set is described as follows: Toxicity in Balb/c mouse assessed as white blood cell count at 66.2 mg/kg, ig bid for 7 days (reference value: 7.7 +/- 0.65 10^9/L). It counts as organism-based. To be noted: in vivo, po, 168 h.
Data set [31] concerns Mus musculus. The experiment in a line: Toxicity in Balb/c mouse assessed as red blood cell count at 66.2 mg/kg, ig bid for 7 days (reference value: 7.55 +/- 0.59 10^12/L). It counts as organism-based. To be noted: in vivo, po, 168 h.

As for `CC(=O)Oc1ccccc1C(=O)O` [ASPIRIN], the Activity in the data set with Rattus norvegicus [1] is reported as 28.85%; in the data set with Mus musculus [2], 7.84 ×10⁹ /L; with Mus musculus [4] it was 7.62 ×10¹² /L; in the data set listed under Rattus norvegicus [5] it was “Toxic”; in the data set on Mus musculus [10], 651 ×10⁹ /L; with Mus musculus [14], 150 g/L. In addition, the Activity is listed as 43.8% with Mus musculus [17] and “Toxic” in the data set filed under Rattus norvegicus [20]. Moreover, the result in the data set on Rattus norvegicus [3], in the data set on Rattus norvegicus [15], with Rattus norvegicus [16] and in the data set on Rattus norvegicus [19] was Active. The outcome in the data set with Rattus norvegicus [6], in the data set on Rattus norvegicus [7], in the data set with Rattus norvegicus [9], in the data set on Rattus norvegicus [12] and in the data set on Rattus norvegicus [13] was inactive. The PT in the data set on Rattus norvegicus [8] turned out to be 10.5 s. For the same molecule, in the data set with Mus musculus [11], the Time is > 900 s. In the data set filed under Rattus norvegicus [18], the UI is 20.66. For the same molecule, the TT with Rattus norvegicus [21] came out at 45.3 s. The APTT in the data set with Rattus norvegicus [22] amounted to 18 s.
For the molecule `C[C@@H]1CC[C@@]2(OC1)O[C@H]1C[C@H]3[C@@H]4CC=C5C[C@@H](O)CC[C@]5(C)[C@H]4CC[C@]3(C)[C@H]1[C@@H]2C` [DISOGENIN], in the data set with Rattus norvegicus [23], the TT came to 53.2 s. Besides, the Activity in the data set with Mus musculus [24] is reported as 137 g/L; in the data set listed under Rattus norvegicus [5] it was “Non-toxic”; in the data set on Mus musculus [25] it was 39.4%; with Rattus norvegicus [26], 49.14%; with Mus musculus [28], 788 ×10⁹ /L; in the data set filed under Rattus norvegicus [20], “Non-toxic”. For the same molecule, the results for the Activity in the data set with Mus musculus [30] and with Mus musculus [31] were 7.99 ×10⁹ /L and 7.45 ×10¹² /L, respectively. Besides, in the data set with Rattus norvegicus [27], the APTT is listed as 19.2 s. Further, the PT in the data set on Rattus norvegicus [29] is 15.2 s. Besides, in the data set listed under Rattus norvegicus [18], the UI is given as 1.33.
